Results reported in ChEMBL document CHEMBL1201862, “PubChem BioAssay data set” (2004).
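1) Cells in 96-well plates. 2) Compound, 48 h, 5 concentrations. 3) Linear interpolation between surrounding doses. 4) Unreached endpoint = highest concentration. GI50 marks 50% less growth.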 Active and inactive are the calls of the source. Cut-off read from the data, not from the text of the source: active = GI50 up to about 1.1 µM and inactive = higher.

What was measured:
Test in all cases: DTP human tumour cell line panel, 48 h
UACC-257 = test system: UACC-257
SNB-78 = test system: SNB-78
SF-295 = test system: SF-295
UACC-62 = test system: UACC-62
Malme-3M = test system: Malme-3M
CAKI-1 = test system: CAKI-1
HOP-92 = test system: HOP-92
SF-539 = test system: SF-539
SK-MEL-5 = test system: SK-MEL-5
IGROV-1 = test system: IGROV-1
COLO 205 = test system: COLO 205
TK-10 = test system: TK-10
RPMI-8226 = test system: RPMI-8226
DMS-114 = test system: DMS-114
HOP-18 = test system: HOP-18
NCI-H23 = test system: NCI-H23
KM12 = test system: KM12
A549 = test system: A549
NCI-H460 = test system: NCI-H460
SNB-75 = test system: SNB-75
HT-29 = test system: HT-29
SF-268 = test system: SF-268
SNB-19 = test system: SNB-19
LOX IMVI = test system: LOX IMVI
SK-MEL-2 = test system: SK-MEL-2
K562 = test system: K562
OVCAR-8 = test system: OVCAR-8
SN12C = test system: SN12C
786-0 = test system: 786-0
ACHN = test system: ACHN
M19-MEL = test system: M19-MEL
SR = test system: SR
OVCAR-5 = test system: OVCAR-5
U-251 = test system: U-251
RXF 393 = test system: RXF 393
KM-20L2 = test system: KM-20L2
DMS-273 = test system: DMS-273
HCT-116 = test system: HCT-116
A498 = test system: A498
XF498 = test system: XF498
DLD-1 = test system: DLD-1
SK-MEL-28 = test system: SK-MEL-28
OVCAR-4 = test system: OVCAR-4
OVCAR-3 = test system: OVCAR-3
EKVX = test system: EKVX
SW-620 = test system: SW-620
HCT-15 = test system: HCT-15
HOP-62 = test system: HOP-62
CCRF-CEM = test system: CCRF-CEM
SK-OV-3 = test system: SK-OV-3
HCC 2998 = test system: HCC 2998
LXFL 529 = test system: LXFL 529
NCI-H522 = test system: NCI-H522
UO-31 = test system: UO-31
NCI-H226 = test system: NCI-H226
M14 = test system: M14
MOLT-4 = test system: MOLT-4
HL-60 = test system: HL-60

## CCC1=NC(CO)[C@H](c2ccccc2)O1 (stereo not given in full)
UACC-257
  GI50: > 100 µM (inactive)
SNB-78
  GI50: > 100 µM (inactive)
SF-295
  GI50: > 100 µM (inactive)
UACC-62
  GI50: > 100 µM (inactive)
Malme-3M
  GI50: > 100 µM (inactive)
CAKI-1
  GI50: > 100 µM (inactive)
HOP-92
  GI50: > 100 µM (inactive)
SF-539
  GI50: > 100 µM (inactive)
SK-MEL-5
  GI50: > 100 µM (inactive)
IGROV-1
  GI50: > 100 µM (inactive)
COLO 205
  GI50: > 100 µM (inactive)
TK-10
  GI50: > 100 µM (inactive)
RPMI-8226
  GI50: > 100 µM (inactive)
DMS-114
  GI50: > 100 µM (inactive)
HOP-18
  GI50: > 100 µM (inactive)
NCI-H23
  GI50: > 100 µM (inactive)
KM12
  GI50: > 100 µM (inactive)
A549
  GI50: > 100 µM (inactive)
NCI-H460
  GI50: > 100 µM (inactive)
SNB-75
  GI50: > 100 µM (inactive)
HT-29
  GI50: > 100 µM (inactive)
SF-268
  GI50: > 100 µM (inactive)
SNB-19
  GI50: > 100 µM (inactive)
LOX IMVI
  GI50: > 100 µM (inactive)
SK-MEL-2
  GI50: > 100 µM (inactive)
K562
  GI50: > 100 µM (inactive)
OVCAR-8
  GI50: > 100 µM (inactive)
SN12C
  GI50: > 100 µM (inactive)
786-0
  GI50: > 100 µM (inactive)
ACHN
  GI50: > 100 µM (inactive)
M19-MEL
  GI50: > 100 µM (inactive)
SR
  GI50: > 100 µM (inactive)
OVCAR-5
  GI50: > 100 µM (inactive)
U-251
  GI50: > 100 µM (inactive)
RXF 393
  GI50: > 100 µM (inactive)
KM-20L2
  GI50: > 100 µM (inactive)
DMS-273
  GI50: > 100 µM (inactive)
HCT-116
  GI50: > 100 µM (inactive)
A498
  GI50: > 100 µM (inactive)
XF498
  GI50: > 100 µM (inactive)
DLD-1
  GI50: > 100 µM (inactive)
SK-MEL-28
  GI50: > 100 µM (inactive)
OVCAR-4
  GI50: > 100 µM (inactive)
OVCAR-3
  GI50: > 100 µM (inactive)
EKVX
  GI50: > 100 µM (inactive)
SW-620
  GI50: > 100 µM (inactive)
HCT-15
  GI50: > 100 µM
HOP-62
  GI50: > 100 µM (inactive)

## CC1CC(=O)C2CC(CO)=CCCC2C1(C)CC/C(=C/CO)CO (stereo not given)
UACC-257
  GI50: > 100 µM (inactive)
SNB-78
  GI50: > 100 µM (inactive)
SF-295
  GI50: > 100 µM (inactive)
UACC-62
  GI50: > 100 µM (inactive)
Malme-3M
  GI50: > 100 µM (inactive)
CAKI-1
  GI50: > 100 µM (inactive)
HOP-92
  GI50: > 100 µM (inactive)
SK-MEL-5
  GI50: > 100 µM (inactive)
CCRF-CEM
  GI50: > 100 µM (inactive)
IGROV-1
  GI50: > 100 µM (inactive)
SK-OV-3
  GI50: > 100 µM (inactive)
COLO 205
  GI50: > 100 µM (inactive)
TK-10
  GI50: > 100 µM (inactive)
RPMI-8226
  GI50: > 100 µM (inactive)
HCC 2998
  GI50: > 100 µM (inactive)
DMS-114
  GI50: > 100 µM (inactive)
HOP-18
  GI50: > 100 µM (inactive)
NCI-H23
  GI50: > 100 µM (inactive)
KM12
  GI50: > 100 µM (inactive)
A549
  GI50: > 100 µM (inactive)
NCI-H460
  GI50: > 100 µM (inactive)
LXFL 529
  GI50: > 100 µM (inactive)
SNB-75
  GI50: > 100 µM (inactive)
HT-29
  GI50: > 100 µM (inactive)
LOX IMVI
  GI50: > 10 µM (inactive)
K562
  GI50: > 100 µM (inactive)
OVCAR-8
  GI50: > 100 µM (inactive)
NCI-H522
  GI50: 87.9 µM (inactive)
SN12C
  GI50: > 100 µM (inactive)
786-0
  GI50: > 100 µM (inactive)
ACHN
  GI50: > 100 µM (inactive)
M19-MEL
  GI50: > 100 µM (inactive)
UO-31
  GI50: > 100 µM (inactive)
NCI-H226
  GI50: > 100 µM (inactive)
U-251
  GI50: > 100 µM (inactive)
M14
  GI50: > 100 µM (inactive)
RXF 393
  GI50: > 100 µM (inactive)
DMS-273
  GI50: > 100 µM (inactive)
HCT-116
  GI50: > 100 µM (inactive)
A498
  GI50: > 100 µM (inactive)
DLD-1
  GI50: > 100 µM (inactive)
SK-MEL-28
  GI50: > 100 µM (inactive)
OVCAR-3
  GI50: > 100 µM (inactive)
EKVX
  GI50: > 100 µM (inactive)
SW-620
  GI50: > 100 µM (inactive)
MOLT-4
  GI50: > 100 µM (inactive)
HCT-15
  GI50: > 100 µM

## CC(=O)OC1COC(n2c(=S)n(-c3ccccc3)c(=O)c3cc(Br)ccc32)C(OC(C)=O)C1OC(C)=O (stereo not given)
UACC-257
  GI50: 55.2 µM (inactive)
SNB-78
  GI50: 29 µM (inactive)
SF-295
  GI50: 27.5 µM (inactive)
UACC-62
  GI50: 37.3 µM (inactive)
Malme-3M
  GI50: 35.4 µM (inactive)
CAKI-1
  GI50: 42 µM (inactive)
HOP-92
  GI50: 19.5 µM (inactive)
SF-539
  GI50: 22.4 µM (inactive)
SK-MEL-5
  GI50: 54.8 µM (inactive)
CCRF-CEM
  GI50: > 100 µM (inactive)
IGROV-1
  GI50: 45.1 µM (inactive)
SK-OV-3
  GI50: 32.8 µM (inactive)
COLO 205
  GI50: > 100 µM (inactive)
RPMI-8226
  GI50: 33.9 µM (inactive)
HCC 2998
  GI50: > 100 µM (inactive)
DMS-114
  GI50: 51.6 µM (inactive)
HOP-18
  GI50: > 100 µM (inactive)
NCI-H23
  GI50: 43.7 µM (inactive)
KM12
  GI50: > 100 µM (inactive)
A549
  GI50: 40.4 µM (inactive)
NCI-H460
  GI50: 65.2 µM (inactive)
LXFL 529
  GI50: 27 µM (inactive)
SNB-75
  GI50: 7.11 µM (inactive)
HT-29
  GI50: 72.1 µM (inactive)
SF-268
  GI50: 29.1 µM (inactive)
SNB-19
  GI50: 25.2 µM (inactive)
LOX IMVI
  GI50: 57.1 µM (inactive)
SK-MEL-2
  GI50: 45.1 µM (inactive)
K562
  GI50: > 100 µM (inactive)
OVCAR-8
  GI50: 36.1 µM (inactive)
NCI-H522
  GI50: 45.8 µM (inactive)
SN12C
  GI50: 71.1 µM (inactive)
786-0
  GI50: 34.1 µM (inactive)
ACHN
  GI50: > 100 µM (inactive)
M19-MEL
  GI50: 53.6 µM (inactive)
UO-31
  GI50: > 100 µM (inactive)
OVCAR-5
  GI50: > 100 µM (inactive)
HL-60
  GI50: > 100 µM (inactive)
NCI-H226
  GI50: 83.4 µM (inactive)
U-251
  GI50: 14.6 µM (inactive)
M14
  GI50: 30.8 µM (inactive)
RXF 393
  GI50: 22.2 µM (inactive)
KM-20L2
  GI50: > 100 µM (inactive)
DMS-273
  GI50: 45.8 µM (inactive)
HCT-116
  GI50: 23.9 µM (inactive)
A498
  GI50: 49.4 µM (inactive)
XF498
  GI50: 19.3 µM (inactive)
SK-MEL-28
  GI50: 37.8 µM (inactive)
OVCAR-4
  GI50: 7.5 µM (inactive)
OVCAR-3
  GI50: 73.3 µM (inactive)
EKVX
  GI50: > 100 µM (inactive)
SW-620
  GI50: > 100 µM (inactive)
MOLT-4
  GI50: > 100 µM (inactive)
HCT-15
  GI50: > 100 µM
HOP-62
  GI50: 19.5 µM (inactive)
